Results on 1 molecule are retold here after patent US20030144219A1, “Formulations and methods for treatment or amelioration of inflammatory conditions” (priority 2001, published 2003).

For series [1] the following is noted: 3.6 gm DHA per day ingested by humans; cited from earlier work.
Series [2] is described as follows: Human ingestion of DHA in studies in support of the invention. It counts as in vivo. The conditions noted are these: approximately 800 mg DHA daily. How it is done:
The average dietary intake of DHA (10-60 mg/day) in the American diet is relatively low in comparison to intake in countries where fish or fish products comprise higher percentages of the diet. […] Generally, ranges of about 10-10,000 mg, or more specifically, about 50-2000 mg, or 100-1000 mg will-be preferred. […] Appropriate dosages of other polyunsaturated fatty acids can be estimated with reference to this study, based on known safe ingestion levels, or may be determined empirically, with the guidance provided herein.

As to `CC/C=C\C/C=C\C/C=C\C/C=C\C/C=C\C/C=C\CCC(=O)O` [DHA, all-cis 4,7,10,13,16,19-docosahexaenoic acid], in series [1], the toxicities entry was “no apparent toxicities”. Further, the adverse effects entry in series [2] is given as “no apparent adverse effects”.
